# In ChEMBL document CHEMBL1201862, “PubChem BioAssay data set” (2004):
#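 96-well plates; 48 h exposure; 5 concentrations. Endpoints by linear interpolation between flanking doses. Not reached: highest tested concentration assigned. Here, GI50 denotes the concentration required for 50% inhibition of growth.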 Calls of active or inactive are those of the source. Cut-off read from the data, not from the text of the source: active = GI50 up to about 1.1 µM and inactive = higher.
# How the values were obtained:
# Experiment in all cases: growth of human tumour cells (NCI), 48 h
# SR = test system: SR
# EKVX = test system: EKVX
# OVCAR-3 = test system: OVCAR-3
# T47D = test system: T47D
# SF-539 = test system: SF-539
# IGROV-1 = test system: IGROV-1
# MDA-MB-231 = test system: MDA-MB-231
# HOP-62 = test system: HOP-62
# OVCAR-4 = test system: OVCAR-4
# HOP-92 = test system: HOP-92
# NCI-H226 = test system: NCI-H226
# NCI-H460 = test system: NCI-H460
# SK-MEL-5 = test system: SK-MEL-5
# OVCAR-8 = test system: OVCAR-8
# CAKI-1 = test system: CAKI-1
# U-251 = test system: U-251
# PC-3 = test system: PC-3
# ACHN = test system: ACHN
# A549 = test system: A549
# RXF 393 = test system: RXF 393
# SK-MEL-2 = test system: SK-MEL-2
# SK-MEL-28 = test system: SK-MEL-28
# LOX IMVI = test system: LOX IMVI
# SK-OV-3 = test system: SK-OV-3
# DU-145 = test system: DU-145
# MDA-N = test system: MDA-N
# HL-60 = test system: HL-60
# M14 = test system: M14
# OVCAR-5 = test system: OVCAR-5
# NCI/ADR-RES = test system: NCI/ADR-RES
# Malme-3M = test system: Malme-3M
# UACC-62 = test system: UACC-62
# 786-0 = test system: 786-0
# A498 = test system: A498
# MDA-MB-435 = test system: MDA-MB-435
# CCRF-CEM = test system: CCRF-CEM
# COLO 205 = test system: COLO 205
# Hs-578T = test system: Hs-578T
# MOLT-4 = test system: MOLT-4
# UACC-257 = test system: UACC-257
# SW-620 = test system: SW-620
# TK-10 = test system: TK-10
# HT-29 = test system: HT-29
# SNB-19 = test system: SNB-19
# HCT-15 = test system: HCT-15
# NCI-H23 = test system: NCI-H23
# SN12C = test system: SN12C
# K562 = test system: K562
# HCC 2998 = test system: HCC 2998
# SF-268 = test system: SF-268
# RPMI-8226 = test system: RPMI-8226
# UO-31 = test system: UO-31
# MCF7 = test system: MCF7
# SNB-75 = test system: SNB-75
# KM12 = test system: KM12
# NCI-H522 = test system: NCI-H522
# HCT-116 = test system: HCT-116
# SF-295 = test system: SF-295
structure (smiles),measurement,setting,value
Oc1ccccc1/C=N/N1C(=S)N(c2ccccc2)C(=N\c2ccccc2)/C1=N/c1ccccc1,GI50,SR,18.7 µM (inactive)
same,GI50,EKVX,14.9 µM (inactive)
same,GI50,OVCAR-3,15 µM (inactive)
same,GI50,T47D,15.9 µM (inactive)
same,GI50,SF-539,4.81 µM (inactive)
same,GI50,IGROV-1,14 µM (inactive)
same,GI50,MDA-MB-231,10 µM (inactive)
same,GI50,HOP-62,9.35 µM (inactive)
same,GI50,OVCAR-4,1.27 µM (inactive)
same,GI50,HOP-92,4.57 µM (inactive)
same,GI50,NCI-H226,11.6 µM (inactive)
same,GI50,NCI-H460,12.4 µM (inactive)
same,GI50,SK-MEL-5,18.2 µM (inactive)
same,GI50,OVCAR-8,4.97 µM (inactive)
same,GI50,CAKI-1,12.4 µM (inactive)
same,GI50,U-251,2.79 µM (inactive)
same,GI50,PC-3,16.9 µM (inactive)
same,GI50,ACHN,2.41 µM (inactive)
same,GI50,A549,13.9 µM (inactive)
same,GI50,RXF 393,5.41 µM (inactive)
same,GI50,SK-MEL-2,17.7 µM (inactive)
same,GI50,SK-MEL-28,26.8 µM (inactive)
same,GI50,LOX IMVI,13.7 µM (inactive)
same,GI50,SK-OV-3,13.9 µM (inactive)
same,GI50,DU-145,16.9 µM (inactive)
same,GI50,MDA-N,18.5 µM (inactive)
same,GI50,HL-60,30 µM (inactive)
same,GI50,M14,15.1 µM (inactive)
same,GI50,OVCAR-5,34 µM (inactive)
same,GI50,NCI/ADR-RES,13.6 µM (inactive)
same,GI50,Malme-3M,22.4 µM (inactive)
same,GI50,UACC-62,13.9 µM (inactive)
same,GI50,786-0,2.72 µM (inactive)
same,GI50,A498,5.33 µM (inactive)
same,GI50,MDA-MB-435,22.3 µM (inactive)
same,GI50,CCRF-CEM,> 37 µM (inactive)
same,GI50,COLO 205,3.27 µM (inactive)
same,GI50,Hs-578T,4.53 µM (inactive)
same,GI50,MOLT-4,> 33.3 µM (inactive)
same,GI50,UACC-257,25.1 µM (inactive)
same,GI50,SW-620,22.3 µM (inactive)
same,GI50,TK-10,8.28 µM (inactive)
same,GI50,HT-29,3.63 µM (inactive)
same,GI50,SNB-19,6.47 µM (inactive)
same,GI50,HCT-15,35 µM
same,GI50,NCI-H23,11.1 µM (inactive)
same,GI50,SN12C,12.4 µM (inactive)
same,GI50,K562,28.6 µM (inactive)
same,GI50,HCC 2998,23.1 µM (inactive)
same,GI50,SF-268,12.1 µM (inactive)
same,GI50,RPMI-8226,> 35.6 µM (inactive)
same,GI50,UO-31,14 µM (inactive)
same,GI50,MCF7,> 100 µM (inactive)
same,GI50,SNB-75,3.21 µM (inactive)
same,GI50,KM12,46.3 µM (inactive)
same,GI50,NCI-H522,3.89 µM (inactive)
same,GI50,HCT-116,11.6 µM (inactive)
same,GI50,SF-295,8.39 µM (inactive)
